Where two headings read alike, the source gives them in different places.
Columns and labels:
[1] = system: Porcine Trabecular Meshwork cells (PTM); test: PTM-HTM Assay: porcine trabecular meshwork cells, actin fibers; type: cell-based; details: Sus scrofa, phalloidin stain, actin fiber length, percent of control
Experimental: (§1) Porcine Trabecular Meshwork cells (PTM) were isolated from freshly obtained enucleated porcine eyes following a procedure by Rao et al.^1 Immortalized Human Trabecular Meshwork cells (TM-1) were obtained through a kind gift from Donna Peters in the Department of Ophthalmology and Visual Sciences at the University of Wisconsin. Cells were plated onto fibronectin coated glass-bottom 96-well plates and allowed to attach overnight. Media was removed and replaced with test compound in media with 1% fetal bovine serum and incubated for various times. After incubation, cells were formaldehyde fixed, triton solubilized, and stained. PTM cells were stained with Alexa Fluor®488 phalloidin (F-actin) and Hoechst 33342 (nuclei). TM-1 cells were stained with anti-paxillin followed by Alexa Fluor®488 goat-anti-mouse IgG (focal adhesions) and Hoechst 33342 (nuclei). All staining reagents were obtained through Invitrogen. Images were collected on an INCell 2200 imager with a 20× objective. The actin fiber length and total area of focal adhesions were analyzed using custom algorithms developed in the INCell Developer Toolbox, v1.9.3. Data collected were converted to percent of control (untreated cells). Curves were fit to data in GraphPad Prizm4 using sigmoidal dose-response and constraining top and bottom to 100% and 0%, respectively.

ROCK2 = ROCK2 (Homo sapiens, UniProt O75116); test: ROCK Kinase Assay (Kinase-Glo luminescent); type: biochemical
ROCK2, sequence (O75116 whole entry, species assumed): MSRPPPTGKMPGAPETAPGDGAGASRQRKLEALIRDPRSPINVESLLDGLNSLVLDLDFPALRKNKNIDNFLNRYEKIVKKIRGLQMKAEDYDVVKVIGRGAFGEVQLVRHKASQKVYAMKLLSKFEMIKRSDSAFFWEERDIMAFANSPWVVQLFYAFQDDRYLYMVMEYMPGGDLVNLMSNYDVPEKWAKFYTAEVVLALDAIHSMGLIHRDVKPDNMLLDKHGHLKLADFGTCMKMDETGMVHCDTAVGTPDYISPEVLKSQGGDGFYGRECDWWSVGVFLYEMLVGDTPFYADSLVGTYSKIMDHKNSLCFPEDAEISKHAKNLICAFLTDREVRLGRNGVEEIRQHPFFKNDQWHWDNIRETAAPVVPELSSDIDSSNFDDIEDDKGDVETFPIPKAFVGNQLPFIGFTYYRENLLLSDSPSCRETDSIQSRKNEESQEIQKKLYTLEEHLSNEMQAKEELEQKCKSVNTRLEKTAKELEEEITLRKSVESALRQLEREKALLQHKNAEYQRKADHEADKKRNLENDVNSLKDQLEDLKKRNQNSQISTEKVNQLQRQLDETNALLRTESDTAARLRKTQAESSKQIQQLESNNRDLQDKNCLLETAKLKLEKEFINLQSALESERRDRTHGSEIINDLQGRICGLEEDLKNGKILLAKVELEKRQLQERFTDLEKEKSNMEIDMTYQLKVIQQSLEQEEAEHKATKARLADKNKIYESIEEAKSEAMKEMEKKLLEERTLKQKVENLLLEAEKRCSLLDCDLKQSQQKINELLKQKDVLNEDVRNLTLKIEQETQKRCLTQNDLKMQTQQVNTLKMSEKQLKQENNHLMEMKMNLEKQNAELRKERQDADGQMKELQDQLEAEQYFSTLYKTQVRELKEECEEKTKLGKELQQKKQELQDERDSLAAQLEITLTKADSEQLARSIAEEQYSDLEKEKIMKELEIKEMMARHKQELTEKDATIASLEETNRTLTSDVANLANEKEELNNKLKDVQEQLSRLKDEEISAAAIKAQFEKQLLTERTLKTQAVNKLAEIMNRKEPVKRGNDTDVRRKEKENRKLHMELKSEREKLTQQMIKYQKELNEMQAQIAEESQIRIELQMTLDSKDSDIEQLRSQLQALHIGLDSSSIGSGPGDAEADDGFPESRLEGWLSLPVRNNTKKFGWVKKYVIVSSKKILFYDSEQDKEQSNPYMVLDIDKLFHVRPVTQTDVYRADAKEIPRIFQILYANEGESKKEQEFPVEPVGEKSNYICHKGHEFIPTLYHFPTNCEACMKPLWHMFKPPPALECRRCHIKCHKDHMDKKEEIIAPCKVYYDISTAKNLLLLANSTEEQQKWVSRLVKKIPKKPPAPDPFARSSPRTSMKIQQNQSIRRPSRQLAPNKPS
Experimental: All compounds were initially prepared as 10 mM stocks in anhydrous dimethylsulfoxide (DMSO). […] Test compounds were then serially diluted 1:3 in DMSO for a 10-point concentration response and further diluted in the assay buffer bringing all compound concentrations to 4× final concentration in 10% DMSO. […] A 10 μL aliquot of compound from each well of the intermediate dilution plate and 10 μL of a 4× stock solution containing ATP (5 μM) and acceptor substrate (20 μM RSK2 peptide […]) were added to all wells. […] Reactions were thoroughly mixed manually, covered and allowed to incubate at room temperature for 180 min. Protein kinase activity was quantitated using Promega's Kinase-Glo™ luminescent Kinase Assay Kit according to the manufacturer's directions. ATP concentrations remaining in Test wells following the termination of the enzymatic reaction were compared against control wells containing equivalent amounts of DMSO containing no inhibitor (CTRL). […] Percent of Control (POC) values were determined for each concentration of compound tested according to the equation: POC=((Test well value−BKG)/(CTRL−BKG))*100
IC50 values were calculated using the following 4-parameter logistic curve-fitting algorithm: f(x)=(A+((B−A)/(1+((x/C)^D))))
IC50 values were converted to Ki values using the Cheng-Prusoff Equation: Ki=IC50/(1+([ATP]/Km ATP])).

[2] = system: Immortalized Human Trabecular Meshwork cells (TM-1); test: PTM-HTM Assay: human trabecular meshwork cells, focal adhesions; type: cell-based; details: TM1, TM-1 cells, anti-paxillin stain, total area of focal adhesions, percent of control
Experimental: as §1

[3] = IC50 converted to Ki by Cheng-Prusoff, ATP 5 μM, ROCK2 1 nM, 180 min, read-out: ROCK2 Ki

SMILES | IC50 [1] | Ki (ROCK2; [3]) | IC50 [2] | Ki (ROCK2)
NCC(C(=O)Nc1ccc2cnccc2c1)c1ccc(O)c(O)c1 (centres unmarked) [Compound 18] | 5150 nM | 5.5 nM | 11000 nM | 
COc1cccc(C(CN)C(=O)Nc2ccc3cnccc3c2)c1 (centres unmarked) [Compound 19] | 448 nM | 2 nM | 214 nM | 
NCC(C(=O)Nc1ccc2c(O)nccc2c1)c1ccccc1 (centres unmarked) [Compound 5] | 45 nM | 2.2 nM | 266 nM | 
NCC(C(=O)Nc1ccc2cnccc2c1)c1ccc(Cl)cc1Cl (centres unmarked) [Compound 12] | 214 nM | 0.8 nM | 208 nM | 
NCC(C(=O)Nc1ccc2cnccc2c1)c1ccccc1 (centres unmarked) [Compound 2] |  | 0.8 nM |  | 
NC[C@@H](C(=O)Nc1ccc2cnccc2c1)c1ccccc1 [3 (S)] |  | 0.4 nM | 41 nM | 
NCC(C(=O)Nc1ccc2cnccc2c1)c1cccc(Cl)c1 (centres unmarked) [Compound 10] | 455 nM | 0.9 nM | 383 nM | 
NCC(C(=O)Nc1ccc2cnccc2c1)c1cccc(CO)c1 (centres unmarked) [Compound 23] | 1380 nM | 3 nM | 248 nM | 
NCC(C(=O)Nc1ccc2cnccc2c1)c1ccccc1F (centres unmarked) [Compound 6] | 260 nM | 1 nM | 139 nM | 
Cc1cccc(C(CN)C(=O)Nc2ccc3cnccc3c2)c1 (centres unmarked) [Compound 14] | 511 nM | 3.3 nM | 324 nM | 
NC[C@H](C(=O)Nc1ccc2cnccc2c1)c1ccccc1 [4 (R)] |  | 16 nM |  | 
NCC(C(=O)Nc1ccc2cnccc2c1)c1ccc(CO)cc1 (centres unmarked) [Compound 24] |  |  |  | 0.7 nM
Cc1ccccc1C(CN)C(=O)Nc1ccc2cnccc2c1 (centres unmarked) [Compound 13] | 200 nM | 1 nM | 90 nM | 
NCC(C(=O)Nc1ccc2cnccc2c1)c1cccc(F)c1 (centres unmarked) [Compound 7] | 298 nM | 1 nM | 201 nM | 
NCC(C(=O)Nc1ccc2cnccc2c1)c1cccc(O)c1 (centres unmarked) [Compound 16] | 459 nM | 1.3 nM | 1720 nM | 
NCC(C(=O)Nc1ccc2cnccc2c1)c1ccccc1Cl (centres unmarked) [Compound 9] | 245 nM | 1.3 nM | 192 nM | 

Second part, led by results:

IC50 [1] | Ki (ROCK2; [3]) | SMILES | IC50 [2] | Ki (ROCK2)
1020 nM | 0.6 nM | NCC(C(=O)Nc1ccc2cnccc2c1)c1ccc(O)cc1 (centres unmarked) [Compound 17] | 193 nM | 
84 nM | 0.4 nM | Cc1ccc(C(CN)C(=O)Nc2ccc3cnccc3c2)cc1 (centres unmarked) [Compound 15] | 39 nM | 
670 nM | 1.3 nM | COc1ccc(C(CN)C(=O)Nc2ccc3cnccc3c2)cc1 (centres unmarked) [Compound 20] | 111 nM | 
129 nM | 0.4 nM | NCC(C(=O)Nc1ccc2cnccc2c1)c1ccc(Cl)cc1 (centres unmarked) [Compound 11] | 64 nM | 
596 nM | 2.7 nM | NCC(C(=O)Nc1ccc2cnccc2c1)c1cccc(C(F)(F)F)c1 (centres unmarked) [Compound 21] | 475 nM | 
152 nM | 1.8 nM | NCC(C(=O)Nc1ccc2cnccc2c1)c1ccc(C(F)(F)F)cc1 (centres unmarked) [Compound 22] | 493 nM | 
175 nM | 1 nM | NCC(C(=O)Nc1ccc2cnccc2c1)c1ccc(F)cc1 (centres unmarked) [Compound 8] | 102 nM | 
